Values after ≈ are worked out from the molar mass of the structure shown. Values joined by “and” are separate entries in the source; they are usually repeats but may differ in a detail not shown here. Equal values may be shown once. Read-outs that look alike come from different tables or passages of the source.
Tests used:
[1] = biological target: MLP2; assay: ANS displacement assay; format: binding, Papaver somniferum; conditions: for IC50 / Log10IC50: 10 µM protein and 10 µM ANS, CBS pH 5.5; for Kd: from average IC50 and PR10-ANS Kd, competitive inhibition assumed, read-out: Estimated Kd
Source text: (§1) Eluates were store separately on ice.
(§2) Displacement of ANS is associated with reduced fluorescence.

[2] = biological target: PR10-12; assay: ANS displacement assay; format: binding, Papaver somniferum; conditions: for IC50 / Log10IC50: 10 µM protein and 10 µM ANS, CBS pH 5.5; for Kd: from average IC50 and PR10-ANS Kd, competitive inhibition assumed, read-out: Estimated Kd
Source text: as §1, §2

[3] = biological target: PR10-4; assay: ANS displacement assay; format: binding, Papaver somniferum; conditions: for IC50 / Log10IC50: 10 µM protein and 10 µM ANS, CBS pH 5.5; for Kd: from average IC50 and PR10-ANS Kd, competitive inhibition assumed, read-out: Estimated Kd
Source text: as §1, §2

[4] = biological target: PR10-12; assay: Isothermal titration calorimetry; format: binding, Papaver somniferum; conditions: ITC, PBS pH 7.4, 25 °C, single-site model
Experimental: (§3) ITC experiments were conducted using a Microcal VP instrument (Malvern Pananalytical, Malvern, UK). Recombinant MLP/PR10 protein preparation involving production in Escherichia coli followed by cobalt-affinity chromatography was optimized to yield relatively high purity in a single step as determined by SDS-PAGE and colloidal Coomassie blue silver staining. The less than 48 h decrease in atmospheric oxygen exposure generated high-quality proteins with reduced precipitate. […] Eluates were twice dialysed to equilibrium (i.e., 10–12 h at 4 °C) against a 1000-fold (2–4 L) volume of PBS, pH 7.4 (25 mM sodium phosphate, 50 mM NaCl) or CBS, pH 5.5, resulting in a theoretical million-fold dilution of undesired small molecules (e.g., <0.2 µM imidazole). Dialysis was carried out in boiled Spectra/Por 1 6–8 kDa MWCO 0.32 ml/cm (Spectrum Labs, USA) tubing thoroughly washed with either buffer before use. The second 1000-fold volume of dialysis buffer was filtered and degassed using a reusable bottle-top filtration apparatus (Nalgene, USA) with disposable […] cellulose filters (VWR, Canada) prior to storage at 4 °C. Ligands were dissolved in the filtered dialysis buffer at 21 °C for approximately one hour, and any insoluble material was removed by repeated centrifugation at 21,000 × g for 10 min. No change in pH occurred following substrate addition. Prior to ITC, which was initiated immediately following dialysis, the protein solutions were centrifuged at 17,000 × g and 4 °C for 30 min. Any precipitate was separated from the remaining soluble protein fraction which was quantified by absorption at A280nm and diluted with filtered dialysis buffer immediately before use.
(§4) Thermograms were recorded at 25 °C, with a reference power of 10 (dpu/sec) and monitoring of 30 injections of 9 µl BIA ligand solutions into a sample cell containing 1.4 ml of an MLP/PR10 protein solution, with 300 seconds between injections. Protein concentrations varied from 10 to 150 µM to achieve an optimal C value and curve shape valid for parameter calculation. […] To ensure that we report only the heat of reaction for each interaction, independent titrations of ligand into buffer, and buffer into protein solutions, were used to calculate and then subtract heats of dilution. After subtraction, binding isotherms were analyzed in MicroCal Origin 7 (MicroCal, USA) by fitting a single-site binding model using non-linear least squares regression analysis repeated until convergence. […] Each ITC experiment was repeated 2 to 4 times.

[5] = biological target: T1, NISO (Papaver somniferum, UniProt P0DYP9); assay: ANS displacement assay; conditions: for IC50: IC50, NISO; for IC50 / Log10IC50: 10 µM protein and 10 µM ANS, CBS pH 5.5; for Log10IC50 / Hill Slope: NISO; for Hill Slope: ANS displacement dose-response fit
Experimental: (§5) 8-anilino-1-naphthalenesulfonic acid (ANS) fluorescence binding curves and the binding-induced reduction in ANS fluorescence resulting from competition with tested ligands across a range of concentration facilitated the measurement of IC50 and an estimate of Kd values using the binding models and procedures described previously[70]. […] ANS was dissolved in dimethylsufoxide at a concentration of 20 mM, stored at −20 °C until dilution and protected from exposure to light. […] 40 µl of the ANS solution and 40 µl of each MLP/PR10 protein solution were combined to 80 µl final reaction volumes, which were incubated at 21 °C for 10 min to allow equilibration of binding. Triplicate 18-µl aliquots were withdrawn from each 80 µl reaction, transferred to optically clear PCR tubes (Diamed, Canada) and ANS fluorescence was measured following an additional 3-min incubation at 30 °C using a Qiagen Rotor-gene Q 6-plex with excitation and emission filters of 365 ± 20 nm and 460 ± 20 nm, respectively. An identical reaction series whereby protein was omitted from the mixtures was measured under identical conditions and trace fluorescence was subtracted from each MLP/PR10 protein-containing sample. Each data set was scaled so that the maximum observed fluorescence corresponded to 100% and individual data points were plotted, and a rectangular hyperbolic ligand binding function was fit, using least-squares analysis (Prism 5 software, Graphpad, USA). Experiments were repeated at least twice with independently prepared protein.
(§6) Displacement of ANS is associated with reduced fluorescence. […] Briefly, 40 µl of 20 µM ANS and individual MLP/ PR10 protein solutions were combined in CBS buffer, pH 5.5, incubated at 21 °C for 5 min, mixed with 40 µl of separate 0 to 6 mM BIA solutions in CBS buffer, pH 5.5, and the 80 µl reactions were subsequently incubated for 10 min at 21 °C. Fluorescence was measured as described above, including subtraction of any fluorescence in a blank series whereby protein was omitted. […] Each experiment was repeated at least twice with independently prepared MLP/PR10 proteins and BIA ligand.

[6] = biological target: T2, MLP15 (Papaver somniferum, UniProt P19825); assay: ANS displacement assay; conditions: for IC50: IC50, MLP15; for IC50 / Log10IC50: 10 µM protein and 10 µM ANS, CBS pH 5.5; for Log10IC50 / Hill Slope: MLP15; for Hill Slope: ANS displacement dose-response fit
T2 sequence (P19825 1-159): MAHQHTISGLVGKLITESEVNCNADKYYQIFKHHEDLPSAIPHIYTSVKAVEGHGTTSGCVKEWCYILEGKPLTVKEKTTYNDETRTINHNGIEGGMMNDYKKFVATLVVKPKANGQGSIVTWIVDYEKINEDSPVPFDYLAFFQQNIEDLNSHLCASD
Experimental: as §5, §6

[7] = biological target: T1, NISO; assay: Isothermal titration calorimetry; format: binding; set-up: made in house; host or cells: E. coli ArcticExpress (DE3); conditions: ITC, PBS pH 7.4, 25 °C
Experimental: as §3, with “UK).” for “UK). Recombinant MLP/PR10 protein preparation involving production in Escherichia coli followed by cobalt-affinity chromatography was optimized to yield relatively high purity in a single step as determined by SDS-PAGE and colloidal Coomassie blue silver staining. The less than 48 h decrease in atmospheric oxygen exposure generated high-quality proteins with reduced precipitate.”, “No change in pH occurred following substrate addition.” left out
as §4, with “injections.” for “injections. Protein concentrations varied from 10 to 150 µM to achieve an optimal C value and curve shape valid for parameter calculation.”

[8] = biological target: T3, THS2 (Papaver somniferum, UniProt A0A2U9GGW3); assay: Isothermal titration calorimetry; format: binding; set-up: made in house; host or cells: E. coli ArcticExpress (DE3); conditions: ITC, PBS pH 7.4, 25 °C
Experimental: as §3, with “UK).” for “UK). Recombinant MLP/PR10 protein preparation involving production in Escherichia coli followed by cobalt-affinity chromatography was optimized to yield relatively high purity in a single step as determined by SDS-PAGE and colloidal Coomassie blue silver staining. The less than 48 h decrease in atmospheric oxygen exposure generated high-quality proteins with reduced precipitate.”, “No change in pH occurred following substrate addition.” left out
as §4, with “injections.” for “injections. Protein concentrations varied from 10 to 150 µM to achieve an optimal C value and curve shape valid for parameter calculation.”

[9] = biological target: T4, PR10-10 (Papaver somniferum, UniProt A0A9Y2YA81); assay: ANS displacement assay; format: binding; conditions: ANS displacement dose-response fit
T4 sequence (A0A9Y2YA81 1-158): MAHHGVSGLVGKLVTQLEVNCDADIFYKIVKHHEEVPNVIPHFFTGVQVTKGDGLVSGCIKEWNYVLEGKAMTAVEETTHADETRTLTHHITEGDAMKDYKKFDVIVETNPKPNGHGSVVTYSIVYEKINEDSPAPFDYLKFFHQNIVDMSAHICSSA
Source text: as §1, §2

[10] = biological target: T4, PR10-10; assay: Isothermal titration calorimetry; format: binding; conditions: for Kd: ITC
Experimental: as §3, with “UK).” for “UK). Recombinant MLP/PR10 protein preparation involving production in Escherichia coli followed by cobalt-affinity chromatography was optimized to yield relatively high purity in a single step as determined by SDS-PAGE and colloidal Coomassie blue silver staining. The less than 48 h decrease in atmospheric oxygen exposure generated high-quality proteins with reduced precipitate.”, “No change in pH occurred following substrate addition.” left out
as §4, with “injections.” for “injections. Protein concentrations varied from 10 to 150 µM to achieve an optimal C value and curve shape valid for parameter calculation.”

[11] = Ligand solubility threshold in ITC buffer; format: physicochemical; conditions: filtered dialysis buffer (CBS, 21 °C, aqueous buffer, thermodynamic from solid); pH 5.5, ITC buffer
Experimental: ITC experiments were conducted using a Microcal VP instrument (Malvern Pananalytical, Malvern, UK). Recombinant MLP/PR10 protein preparation involving production in Escherichia coli followed by cobalt-affinity chromatography was optimized to yield relatively high purity in a single step as determined by SDS-PAGE and colloidal Coomassie blue silver staining. The less than 48 h decrease in atmospheric oxygen exposure generated high-quality proteins with reduced precipitate. […] Eluates were twice dialysed to equilibrium (i.e., 10–12 h at 4 °C) against a 1000-fold (2–4 L) volume of PBS, pH 7.4 (25 mM sodium phosphate, 50 mM NaCl) or CBS, pH 5.5, resulting in a theoretical million-fold dilution of undesired small molecules (e.g., <0.2 µM imidazole). […] Any precipitate was separated from the remaining soluble protein fraction which was quantified by absorption at A280nm and diluted with filtered dialysis buffer immediately before use.
Thermograms were recorded at 25 °C, with a reference power of 10 (dpu/sec) and monitoring of 30 injections of 9 µl BIA ligand solutions into a sample cell containing 1.4 ml of an MLP/PR10 protein solution, with 300 seconds between injections. […] After subtraction, binding isotherms were analyzed in MicroCal Origin 7 (MicroCal, USA) by fitting a single-site binding model using non-linear least squares regression analysis repeated until convergence. […]

[12] = Sucrose density-gradient fractionation of Przemko latex with exogenous alkaloid; set-up: species or system Papaver somniferum; conditions: exogenous alkaloid (420-460 mM) added to 80 µL Przemko latex, 14-66% sucrose gradient
Experimental: Sucrose solutions (66%, 58%, 46%, 38%, 30%, 24 and 14% [w/v]) were prepared in 50 mM HEPES, pH 7.0, containing 5 mM EDTA. Continuous sucrose density gradients were prepared by layering the solutions (3 mL of 66, 58 and 46%, 6 mL of 38%, and 7 mL of 30, 24 and 14% [w/v] sucrose) in 38-mL thin-wall ultracentrifuge tubes (Beckman Coulter, USA) followed by equilibration at 4 °C for 24 h. Fresh latex (80 µL) was collected from decapitated unripe seed capsules in 1.5-mL microcentrifuge tubes and stored on ice for immediate loading on the sucrose gradients. […] Samples were incubated on ice for 30 min then diluted in 2 mL of latex suspension buffer (500 mM mannitol, 50 mM HEPES, pH 7.0, 5 mM EDTA, 1 mM PMSF) and layered onto sucrose density gradients, which were then centrifuged in an AH-629 rotor (Sorvall, USA) for 3 h at 100,000 × g at 4 °C. The bottom of the ultracentrifuge tube was punctured by a flame-heated 21 G needle and a total of 22 fractions (~1.7 mL) were collected manually. The refractive index of each fraction was measured by a digital refractometer (Reichert, USA) and converted to density. Protein concentration was determined by Bradford assay (BioRad, USA) and samples were stored at −80 °C until use.

[13] = biological target: T3, THS2; assay: ANS displacement assay
Experimental: as §5, §6

T3 sequence (A0A2U9GGW3 whole entry): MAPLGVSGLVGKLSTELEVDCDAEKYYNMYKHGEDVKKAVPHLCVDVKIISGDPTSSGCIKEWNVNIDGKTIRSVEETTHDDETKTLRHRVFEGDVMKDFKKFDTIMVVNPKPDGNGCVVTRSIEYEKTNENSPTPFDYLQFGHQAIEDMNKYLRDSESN
T1 sequence (P0DYP9 entry or part of it): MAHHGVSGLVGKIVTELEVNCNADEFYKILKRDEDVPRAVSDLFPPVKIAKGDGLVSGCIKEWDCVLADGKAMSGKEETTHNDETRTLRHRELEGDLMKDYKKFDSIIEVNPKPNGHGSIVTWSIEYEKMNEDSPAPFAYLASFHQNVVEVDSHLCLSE

| Compound | IC50 [1] [µM] | Log10IC50 [1] | Kd [1] [µM] | IC50 [2] [µM] | Log10IC50 [2] | Kd [2] [µM] | IC50 [3] [µM] | Log10IC50 [3] | Kd [3] [µM] | Kd [5] [µM] | IC50 [5] | Log10IC50 [5] | Hill Slope [5] | Kd [6] [µM] | IC50 [6] [µM] | Log10IC50 [6] | Hill Slope [6] | also measured |
| --- | --- | --- | --- | --- | --- | --- | --- | --- | --- | --- | --- | --- | --- | --- | --- | --- | --- | --- |
| COC1=CC=C2[C@H]3Cc4ccc(OC)c5c4[C@@]2(CCN3C)[C@H]1O5 [Thebaine, thebaine] | 394 | 2.60 ± 0.20 | 292 | 445 | 2.65 ± 0.21 | 432 | 2570 | 3.41 ± 1.42 | 2350 | 171 | 199 µM and 200 µM | 2.30 ± 0.14 | 0.92 ± 0.16 | 612 | 690 | 2.84 ± 0.23 | -1.05 ± 0.19 | Kd [4]: 21.6 ± 0.71 µM; Kd ([4]; listed as thebaine): 22 µM; ΔH [7]: -2.396 ± 0.1109 kcal/mol; ΔS [7]: 13.6 cal/mol/˚K; N ([7]; single-site model): 0.786 ± 0.0251; Kd ([7]; Kd, single-site model): 18 µM and 18.2 µM; ΔH [8]: 2.45 ± 0.09784 kcal/mol; ΔS [8]: 28.8 cal/mol/˚K; N ([8]; single-site model): 0.523 ± 0.0156; Kd ([8]; Kd, single-site model): 31 µM and 31.2 µM |
| COc1ccc(Cc2nccc3cc(OC)c(OC)cc23)cc1OC [Papaverine, papaverine] | 61.4 | 1.79 ± 0.07 | 45.5 | 158 | 2.20 ± 0.09 | 154 | 41.7 | 1.62 ± 0.05 | 38.1 | 82 | 96 µM and 95.5 µM | 1.98 ± 0.05 | -1.20 ± 0.05 | 265 | 299 | 2.48 ± 0.08 | -1.21 ± 0.08 | Hill Slope [9]: -0.36 ± 0.27; heat change of protein-ligand interaction after subtraction of the blank ([10]; ITC thermogram, pH 5.5): -0.2 µcal/s; Kd ([10]; CBS buffer, Fig. 4b prints no unit, read-out: Kd): ~225 µM; Kd ([10]; CBS pH 5.5, printed in brackets beside *, read-out: Kd (estimate, low enthalpy system)): 225 µM; solubility [11]: 1200 µM (≈ 407 µg/mL); formation of dense aggregate bands in gradient [12]: one or more visibly insoluble dense aggregate bands; Kd [13]: 333 µM; IC50 ([13]; IC50, THS2, 10 µM protein and 10 µM ANS, CBS pH 5.5): 493 µM; Log10IC50 ([13]; THS2, 10 µM protein and 10 µM ANS, CBS pH 5.5): 2.69 ± 0.71; Hill Slope ([13]; THS2, ANS displacement dose-response fit): -0.88 ± 0.34 |

Reference: publication PMC9646721, “Alkaloid binding to opium poppy major latex proteins triggers structural modification and functional aggregation” (Nature Communications, 2022)
